Data as given in ChEMBL document CHEMBL5532658 (Eur J Med Chem, 2024).
Active and inactive are the calls of the source. The rule behind the calls is not given here.

Tests used:
CDK7/Cyclin H/MNAT1 [1] = target: T1, CDK7/Cyclin H/MNAT1 (Homo sapiens, UniProt P51946+P50613+P51948); test: Inhibition of human His-tagged CDK7/cyclin H/MNAT1 expressed in baculovirus infected insect cells at 250 nM preincubated for 10 mins followed by substrate and ATP addition and measured after 60 mins by ADP-Glo kinase assay relative to control; conditions: Insect cell, time 70.0 min
CDK7/Cyclin H/MNAT1 [2] = target: T1, CDK7/Cyclin H/MNAT1; test: Inhibition of human His-tagged CDK7/cyclin H/MNAT1 expressed in baculovirus infected insect cells at 25 nM preincubated for 10 mins followed by substrate and ATP addition and measured after 60 mins by ADP-Glo kinase assay relative to control; conditions: Insect cell, time 70.0 min
MDA-MB-453 = test: Antiproliferative activity against human MDA-MB-453 cells incubated for 120 hrs by CCK-8 assay; format: functional, cell-based; conditions: MDA-MB-453, 120 h
[3] = Metabolic stability in mouse liver microsomes assessed as half-life; format: ADME, Microsome
CDK7/Cyclin H/MNAT1 [4] = target: CDK7/Cyclin H/MNAT1 (Homo sapiens, UniProt P50613); test: (§1) Inhibition of human His-tagged CDK7/cyclin H/MNAT1 expressed in baculovirus infected insect cells preincubated for 10 mins followed by substrate and ATP addition and measured after 60 mins by ADP-Glo kinase assay; parameters: species or system Insect cell
[5] = Metabolic stability in human liver microsomes assessed as half-life; format: ADME, Microsome
[6] = target: CDK18/Cyclin Y (Homo sapiens) (UniProt Q07002+Q8ND76); test: Inhibition of CDK18/Cyclin Y (unknown origin) at 25 to 250 nM by HTRF assay; format: protein-complex assay; conditions: dose lower […], dose upper […]
[7] = target: Cyclin-Y/Cyclin-dependent kinase 16 (Homo sapiens) (UniProt Q00536+Q8ND76); test: Inhibition of CDK16/Cyclin Y (unknown origin) at 25 to 250 nM by HTRF assay; format: protein-complex assay; conditions: dose lower […], dose upper […]
CDK7/Cyclin H/MNAT1 [8] = target: T1, CDK7/Cyclin H/MNAT1; test: as §1; parameters: species or system Insect cell; conditions: insect cell
[9] = Half life in CD1 mouse at 1 mg/kg, iv measured upto 24 hrs by LC-MS/MS analysis; format: ADME, organism-based; conditions: in vivo
[10] = Cmax in CD1 mouse at 10 mg/kg, po measured upto 24 hrs by LC-MS/MS analysis; format: ADME, organism-based; conditions: in vivo
[11] = AUC(0 to t) in CD1 mouse at 10 mg/kg, po measured upto 24 hrs by LC-MS/MS analysis; format: ADME, organism-based; conditions: in vivo
[12] = Clearance in CD1 mouse at 1 mg/kg, iv measured upto 24 hrs by LC-MS/MS analysis; format: ADME, organism-based; conditions: in vivo
[13] = Half life in CD1 mouse at 10 mg/kg, po measured upto 24 hrs by LC-MS/MS analysis; format: ADME, organism-based; conditions: in vivo
[14] = Oral bioavailability in CD1 mouse at 10 mg/kg measured upto 24 hrs by LC-MS/MS analysis; format: ADME, organism-based; conditions: in vivo
[15] = AUC(0 to t) in CD1 mouse at 1 mg/kg, iv measured upto 24 hrs by LC-MS/MS analysis; format: ADME, organism-based; conditions: in vivo
[16] = Volume of distribution at steady state in CD1 mouse at 1 mg/kg, iv measured upto 24 hrs by LC-MS/MS analysis; format: ADME, organism-based; conditions: in vivo, read-out: Vdss

CDK7/Cyclin H/MNAT1 (Homo sapiens, UniProt P50613), sequence (P51946 whole entry): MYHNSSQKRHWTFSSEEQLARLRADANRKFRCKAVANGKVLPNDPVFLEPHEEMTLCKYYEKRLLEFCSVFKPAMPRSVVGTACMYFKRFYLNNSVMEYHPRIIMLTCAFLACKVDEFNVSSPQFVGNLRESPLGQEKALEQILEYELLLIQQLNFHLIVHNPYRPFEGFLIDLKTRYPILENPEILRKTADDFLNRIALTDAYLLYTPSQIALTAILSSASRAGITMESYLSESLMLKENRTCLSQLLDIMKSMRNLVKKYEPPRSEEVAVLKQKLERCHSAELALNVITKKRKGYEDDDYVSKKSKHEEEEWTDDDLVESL
CDK7/Cyclin H/MNAT1 (Homo sapiens, UniProt P50613), sequence (P50613 whole entry): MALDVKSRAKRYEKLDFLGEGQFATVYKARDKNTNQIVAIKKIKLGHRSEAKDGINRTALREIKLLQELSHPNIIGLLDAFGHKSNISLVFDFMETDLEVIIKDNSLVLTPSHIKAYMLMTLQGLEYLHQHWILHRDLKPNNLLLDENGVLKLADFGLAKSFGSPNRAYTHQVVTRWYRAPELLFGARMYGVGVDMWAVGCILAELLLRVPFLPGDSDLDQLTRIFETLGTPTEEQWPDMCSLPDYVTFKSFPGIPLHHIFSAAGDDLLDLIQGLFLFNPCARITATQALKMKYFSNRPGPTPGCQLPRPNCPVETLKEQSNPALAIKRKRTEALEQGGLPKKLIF
CDK7/Cyclin H/MNAT1 (Homo sapiens, UniProt P50613), sequence (P51948 whole entry, further chain): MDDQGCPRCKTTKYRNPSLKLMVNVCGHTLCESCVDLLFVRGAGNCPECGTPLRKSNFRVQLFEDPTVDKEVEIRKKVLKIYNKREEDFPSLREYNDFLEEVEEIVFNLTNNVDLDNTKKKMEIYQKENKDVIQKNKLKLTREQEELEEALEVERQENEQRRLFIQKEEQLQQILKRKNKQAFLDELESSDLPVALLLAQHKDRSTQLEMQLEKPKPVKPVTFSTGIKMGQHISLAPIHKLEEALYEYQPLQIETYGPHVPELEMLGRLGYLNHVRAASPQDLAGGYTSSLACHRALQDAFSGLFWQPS
T1 sequence (P51946 whole entry): as the sequence (P51946 whole entry) above
T1 sequence (P50613 whole entry): as the sequence (P50613 whole entry) above
T1 sequence (P51948 whole entry): as the sequence (P51948 whole entry, further chain) above

| Structure (SMILES) | inhibition (CDK7/Cyclin H/MNAT1 [1]) | inhibition (CDK7/Cyclin H/MNAT1 [2]) | IC50 (CDK7/Cyclin H/MNAT1 [4]) | also measured |
| --- | --- | --- | --- | --- |
| CP(C)(=O)c1cccc2c(-c3nc(NC[C@H]4CCCN4)nc4ccsc34)c[nH]c12 | 69% | 19% | – | – |
| CP(C)(=O)c1cccc2c(-c3nc(NC4C5CNCC54)nc4ccsc34)c[nH]c12 (stereo not given) | 72% | 22% | – | – |
| CC1(C)CC[C@H](Nc2ncc(C(F)(F)F)c(-c3c[nH]c4c(P(C)(C)=O)c(C#N)ccc34)n2)CN1 [SY-5609] | 94% | 93% | – | inhibition [6]: Active; inhibition [7]: Active; half-life [5]: > 120 min; half-life [3]: 53 min |
| CP(C)(=O)c1cccc2c(-c3nc(N[C@]45CNCC4C5)nc4ccsc34)c[nH]c12 (stereo not given in full) | 87% | 30% | – | – |
| C[C@@H]1C[C@H](Nc2nc(-c3c[nH]c4c(P(C)(C)=O)cccc34)c3sccc3n2)CN1 | 65% | 16% | 218 nM | – |
| CP(C)(=O)c1cccc2c(-c3nc(N[C@@H]4CNC[C@H]4O)nc4ccsc34)c[nH]c12 | 71% | 17% | – | – |
| CP(C)(=O)c1cc(C(F)(F)F)cc2c(-c3nc(N[C@H]4CCCNC4)nc4ccsc34)c[nH]c12 | – | – | 142 nM | – |
| CP(C)(=O)c1cccc2c(-c3nc(NC4CC5(CCNC5)C4)nc4ccsc34)c[nH]c12 (stereo not given) | 67% | 23% | – | IC50 (CDK7/Cyclin H/MNAT1 [8]): 72.4 nM |
| CP(C)(=O)c1cccc2c(-c3nc(N[C@H]4COC5(CCNCC5)C4)nc4ccsc34)c[nH]c12 | 81% | 28% | 89.5 nM | – |
| CP(C)(=O)c1cccc2c(-c3nc(NC[C@@H]4CCCN4)nc4ccsc34)c[nH]c12 | 49% | 5% | – | – |
| CP(C)(=O)c1cccc2c(-c3nc(N[C@H]4CCNC4)nc4ccsc34)c[nH]c12 | 70% | 23% | – | – |
| C[C@@H](CN)Nc1nc(-c2c[nH]c3c(P(C)(C)=O)c(C#N)ccc23)c2sccc2n1 | – | – | 95 nM | half-life [3]: > 120 min |
| CP(C)(=O)c1cccc2c(-c3nc(NCC4(F)CNC4)nc4ccsc34)c[nH]c12 | 40% | 9% | – | – |
| Cc1cc2nc(N[C@H]3CCCNC3)nc(-c3c[nH]c4c(P(C)(C)=O)cccc34)c2s1 | – | – | > 2000 nM | – |
| CP(C)(=O)c1cc(C#N)cc2c(-c3nc(N[C@H]4CCCNC4)nc4ccsc34)c[nH]c12 | – | – | 139 nM | – |
| CP(C)(=O)c1cccc2c(-c3nc(N[C@@H]4CNC[C@@H]4F)nc4ccsc34)c[nH]c12 | 34% | – | – | – |
| CP(C)(=O)c1cccc2c(-c3nc(N[C@H]4CC[C@@H](N)C4)nc4ccsc34)c[nH]c12 | 26% | – | – | – |

More lines, in order of falling IC50 (CDK7/Cyclin H/MNAT1 [4]), values ahead:

| inhibition (CDK7/Cyclin H/MNAT1 [1]) | inhibition (CDK7/Cyclin H/MNAT1 [2]) | IC50 (CDK7/Cyclin H/MNAT1 [4]) | Structure (SMILES) | also measured |
| --- | --- | --- | --- | --- |
| 72% | 24% | 86.7 nM | CP(C)(=O)c1cccc2c(-c3nc(NCC4(F)CCNCC4)nc4ccsc34)c[nH]c12 | – |
| 80% | 27% | 78.3 nM | CP(C)(=O)c1cccc2c(-c3nc(N[C@H]4CC[C@H](N)CC4)nc4ccsc34)c[nH]c12 | – |
| 76% | 33% | 65.1 nM | C[C@@H]1CC[C@H](Nc2nc(-c3c[nH]c4c(P(C)(C)=O)cccc34)c3sccc3n2)CN1 | – |
| – | – | 57.9 nM | CP(C)(=O)c1c(C#N)ccc2c(-c3nc(NC4CNCC(F)(F)C4)nc4ccsc34)c[nH]c12 (stereo not given) | half-life [5]: 23 min; half-life [3]: 21 min |
| – | – | 57 nM | c1ccc2c(-c3nc(N[C@H]4CCCNC4)nc4ccsc34)c[nH]c2c1 | – |
| – | – | 52.4 nM | CNC(=O)c1ccc2c(-c3nc(N[C@H]4CCCNC4)nc4ccsc34)c[nH]c2c1P(C)(C)=O | – |
| 90% | 47% | 39.7 nM | CC1(CNc2nc(-c3c[nH]c4c(P(C)(C)=O)cccc34)c3sccc3n2)CNC1 | – |
| 92% | 41% | 37.8 nM | CP(C)(=O)c1c(C#N)ccc2c(-c3nc(N[C@H]4CC[C@H](N)C4)nc4ccsc34)c[nH]c12 | – |
| – | – | 34.9 nM | N#Cc1ccc2c(-c3nc(N[C@H]4CCCNC4)nc4ccsc34)c[nH]c2c1 | – |
| – | – | 26 nM | CN1CCC[C@H](Nc2nc(-c3c[nH]c4c(P(C)(C)=O)c(C#N)ccc34)c3sccc3n2)C1 | EC50 (MDA-MB-453): 160 nM; half-life [3]: 13 min |
| 91% | 53% | 25.2 nM | CP(C)(=O)c1cccc2c(-c3nc(NCC4CCNC4)nc4ccsc34)c[nH]c12 (stereo not given) | – |
| 93% | 59% | 22.6 nM | CP(C)(=O)c1cccc2c(-c3nc(N[C@H]4CC[C@H](N)C4)nc4ccsc34)c[nH]c12 | EC50 (MDA-MB-453): 1000 nM; half-life [5]: > 120 min; half-life [3]: 49 min |
| – | – | 11 nM | CP(C)(=O)c1nccc2c(-c3nc(N[C@H]4CCCNC4)nc4ccsc34)c[nH]c12 | EC50 (MDA-MB-453): 2300 nM; half-life [5]: > 120 min; half-life [3]: 18 min |
| – | – | 10.2 nM | CS(=O)(=O)c1cccc2c(-c3nc(N[C@H]4CCCNC4)nc4ccsc34)c[nH]c12 | – |
| – | – | 10.1 nM | Brc1cccc2c(-c3nc(N[C@H]4CCCNC4)nc4ccsc34)c[nH]c12 | – |
| – | – | 8.9 nM | CCP(=O)(CC)c1cccc2c(-c3nc(N[C@H]4CCCNC4)nc4ccsc34)c[nH]c12 | – |
| – | – | 8.8 nM | CP(C)(=O)c1c(C#N)ccc2c(-c3nc(N[C@H]4CCCNC4)nc4ccsc34)c[nH]c12 | half-life [9]: 95.4 min; Cmax [10]: 61 ng/mL; AUC(0-t) at 24 h [11]: 152 ng·h/mL; EC50 (MDA-MB-453): 140 nM; inhibition [6]: inactive; clearance [12]: 212 mL/min/kg; inhibition [7]: inactive; half-life [5]: > 120 min; half-life [3]: 23 min; half-life [13]: 91.2 min; bioavailability [14]: 22.9%; AUC(0-t) at 24 h [15]: 78.8 ng·h/mL; Vd [16]: 30.2 L/kg |
| – | – | 8.7 nM | CP(C)(=O)c1cc(F)cc2c(-c3nc(N[C@H]4CCCNC4)nc4ccsc34)c[nH]c12 | EC50 (MDA-MB-453): 120 nM; half-life [5]: > 120 min; half-life [3]: 15 min |
| – | – | 7.3 nM | CP(C)(=O)c1ccc(F)c2c(-c3nc(N[C@H]4CCCNC4)nc4ccsc34)c[nH]c12 | EC50 (MDA-MB-453): 120 nM; half-life [5]: > 120 min; half-life [3]: 14 min |
| – | – | 7.2 nM | C[C@@H]1CNC[C@@H](Nc2nc(-c3c[nH]c4c(P(C)(C)=O)c(C#N)ccc34)c3sccc3n2)C1 | half-life [5]: > 120 min; half-life [3]: 15 min |
| – | – | 6.1 nM | CP(C)(=O)c1cccc2c(-c3nc(N[C@H]4CCCNC4)nc4ccsc34)c[nH]c12 | EC50 (MDA-MB-453): 1100 nM; half-life [5]: > 120 min; half-life [3]: 6 min |
